Test results published in patent EP2511272B1, “Synthetic analogues of abscisic acid with anti-inflammatory and insulin release stimulation effects on human cells” (Universita' degli Studi di Genova, priority 2011, dated 2012).
Read-outs that look alike come from different tables or passages of the source.

What was measured:
[1] = tested on: Human pancreatic beta cells; assay: Insulin release (secretion index) by human pancreatic beta cells; assay type: cell-based
Method: Human pancreatic beta cells were incubated in 5 […], or 25 mM glucose (HG), in the absence or in the presence of 100 nM ABA or of compound according to example 1 ([…]). Insulin release is expressed as the secretion index (SI) relative to insulin release in LG..
As in the preceding example, for the experimental procedere, reference may be made to the there cited paper, except for the specific use of compound according to example 1. TABLE 13. Effect of ABA and of compound prepared according to example 1 on insulin release (SI) by human pacreatic beta cells at 30 minutes and 120 minutes.

granulocytes = assay: Inhibition of ABA-induced chemotaxis (granulocyte migration, ChemoTx); assay type: cell-based, human
Method: After ON (overnight) incubation in complete DMEM/F12, granulocytes were washed in HBSS and then were resuspended at the concentration of 1x10^7 cells/ml in chemotaxis buffer (HBSS:PBS:5% albumin; 39:16:1).
Chemotaxis was carried out on 96-well plates ChemoTx system microplates (Neuro Probe, Inc., Gaithersburg, MD, U.S.A.) with a polycarbonate filter with 3 µm-diameter pores. The compound prepared according to example 1 was diluted in chemotaxis buffer at various concentrations (5 µM, 100 nM, 1 nM, 0.1 nM) and was added, either alone or together with a solution of 1 µM ABA to the bottom of the plate. The suspension of the cells (25 µl/well) was added to the filter and the plate was incubated for 90 minutes at 37 °C. The migrated cells were transferred to a white 96-well plate and were counted with 60 µl of a solution containing 0.2 % (v/v) of Nonidet P40 and 1 µM Sitox green. After a 20-minute incubation at 37 °C, the fluorescence was measured with Fluostar OPTIMA fluorometer (excitation wavelength λexc = 485 nm and emission wavelength λemis = 520 nm) and the cell number was computed by using a standard cellular curve obtained from serial diltion cellular suspension of granulocytes. The result is expressed as the "chemotactic index" (CI), which corresponds to the ratio of the number of cells migrated towards the chemoattractant divided by the number of cells migrated towards the substrate). A chemotactic index higher than 1 is indicative of chemoattraction of cells. The test was carried out three times in sextuplicate.

human monocytes = assay: Inhibition of ABA-induced PGE2 production in monocytes (EIA); assay type: cell-based; details: 6 h
Method: Monocytes, 25 x 10^6/Petri in complete RPMI, were incubated for 6 h with 100 nM ABA either alone, or in the presence of compound prepared according to example 1, at a concentration of 1 µM. At the end of the incubation, the substrate was centrifuged at 17,000xg for 5 minutes and the concentration of PGE2 was quantitated by using the kit: PGE2 monoclonal EIA kit (Cayman Chemical Co.), following the instructions suppled by the manufacturer.
The cells were lysed in 200 µl of deionized water in order to quantitate total proteins by the Bradford method (Bradford, M. M., 1976), after thre preliminary generation of a reference standard curve, obtained with different concentrations of bovine serum albumin. The spectrophotometric measurements were carried out at wavelength of 595 nm.
The experiment was carried out three times in sextuplicate.
The results were expressed as the average of the results from three independent experiments, as referred to control value. […] TABLE 7. Inhibition of PGE2 production, in human monocytes stimulated with ABA, by compound prepared according to example 1

human granulocytes [2] = assay: Production of reactive oxygen species (ROS), H2DCFDA fluorescence; assay type: cell-based
Method: Human granulocitytes, after ON incubation in complete DMEM/F12, were resuspended at 1x10^7/ml in HBSS and spiked with the fluorescent probe (10 µM), specific for ROS determination, 2',7'-dichlorodihydrofluorescein diacetate (H2DCFDA), for 30 min at 37 °C.
They were subsequently washed twice with HBSS and resuspended at 1x10^6 cells/ml in HBSS and then were kept at room temperature for approximately 30 minutes.
The cells (100 µl) were added to a 96-well plate pre-loaded with ABA 1 µM, either alone or with increasing concentrations of the compound prepared according to example 1.
The increase in fluorescence was measured at 10-sec intervals for 10 minutes, with Fluostar OPTIMA fluorometer (λexc: 485; λemis: 520).
(§1) The experiment was carried out three times in triplicate.
Human granulocutes stimulated with 1 µM ABA become activated, and produce quite large amounts of reactive oxygen species (ROS) (Bruzzone, jbc 2007). The results were expressed as the average of the results obtained from three independent experiments, from which the background value, obtained from the control, had been subtracted. TABLE 4. Inhibition of ROS production, in human granulocytes stimulated with ABA, by compound prepared according to example 1.

human granulocytes [3] = assay: Inhibition of ABA-induced phagocytosis of fluorescent beads; assay type: cell-based
Method: Human granulocytes, after ON incubation in complete DMEM/F12, were resuspended at 1x10^6 cells/100 µl in HBSS.
For the experiment, fluorescent polystyrene (carboxylate-modified polystyrene) beads were used, of 1 µm of diameter (Sigma-Aldrich) A volume of 100 µl of cellular suspension was subdivided into eppendorf, in which a 10 minutes long preincubation was carried out with 20 µM ABA, either alone, or together with increasing concentrations of compound prepared according to example 1.
After the end of the preincubation, the beads were added for 5, 10 and 30 minutes. For each experimental point, 2.5 x 10^5 beads were used.
At the end of the incubations, the cells were collected by centrifugation (200xg for 10 seconds), were washed with 1 ml of HBSS at 0 °C and were centrifuged once again at 200xg for 10 seconds. The supernatant was discarded and the cells were resuspended in 350 µl of HBSS and added to 96-well plates of white colour (100 µl per well).
The increase in fluorescence was measured with Fluostar OPTIMA fluorometer (λexc: 485; λemis: 520).
as §1
Human grnulocytes were preincubated for 10 minutes at 20 °C with 20 µM ABA, either alone or in the presence of compound prepared according to example 1, at various concentrations. In order to evaluate the phagocytic capability of granulocytes, fluorescent beads were added and, after 15 and 30 minutes, the fluorescence absorbed by the cells was determined as described in Materials and Methods The results were expressed as the average of the results obtained from three independent experiments, from which the background value, obtained from the control, had been subtracted (TABLE 5). TABLE 5. Inhibition of phagocitosis, in human granulocytes stimulated with ABA, by compound prepared according to example 1.

[4] = LG, substance 100 nM, at 30 minutes
[5] = LG, substance 100 nM, at 120 minutes

Question: For CC(=C/C(=O)O)/C=C/C1(O)C(C)(C)CC(=O)C2OC21C (stereo not drawn) [Example 1, 2'α,3'α-dihydro-2'α,3'α-epoxyabscisic acid], which “SI (insulin secretion index relative to LG)” value ([1]; HG, ABA (100 nM) + compound (100 nM) together, time not printed in the row) is on record?
Answer: 3,8

Question: What about the “SI (insulin secretion index relative to LG)” value ([1]; LG, ABA (100 nM) + compound (100 nM) together, time not printed in the row) of the same molecule?
Answer: 0,72

Question: What about the “SI (insulin secretion index relative to LG)” value [1, 4] of the same molecule?
Answer: 1,8

Question: And the “SI (insulin secretion index relative to LG)” value [1, 5]?
Answer: 2,2

Question: And the “CI±SD (chemotactic index)” value (granulocytes; ABA 1 µM + compound 0.1 nM)?
Answer: 1.37±0.05

Question: What about the “CI±SD (chemotactic index)” value (granulocytes; ABA 1 µM + compound 1 nM) of the same molecule?
Answer: 1.32±0.05

Question: What about the “CI±SD (chemotactic index)” value (granulocytes; ABA 1 µM + compound 100 nM) of the same molecule?
Answer: 1.12±0.04

Question: And the “CI±SD (chemotactic index)” value (granulocytes; ABA 1 µM + compound 5 µM)?
Answer: 0.78±0.03

Question: What about the IC50 (granulocytes; Homo sapiens) of the same molecule?
Answer: ~1 nM

Question: And the inhibition at 0.0001 µM (granulocytes; Homo sapiens, migration towards ABA 1 µM, compound 0.1 nM)?
Answer: 38%

Question: What about the inhibition at 0.001 µM (granulocytes; Homo sapiens, migration towards ABA 1 µM, compound 1 nM) of the same molecule?
Answer: 47%

Question: What about the inhibition at 0.1 µM (granulocytes; Homo sapiens, migration towards ABA 1 µM, compound 100 nM) of the same molecule?
Answer: 80%

Question: And the inhibition at 5 µM (granulocytes; Homo sapiens, migration towards ABA 1 µM, compound 5 µM)?
Answer: 100%

Question: And the “Relative amount of PGE2 as referred to control ± SD” value (human monocytes; ABA 100 nM + compound 1 µM)?
Answer: 1,0±0,1

Question: And the inhibition at 1 µM (human monocytes; Homo sapiens, Monocyte, ABA 100 nM + compound 1 µM)?
Answer: 100%

Question: And the “Increase in fluorescence (delta OD)±SD” value (human granulocytes [2]; ABA 1 µM + compound 0.01 nM)?
Answer: 1325±26.5 delta OD

Question: What about the “Increase in fluorescence (delta OD)±SD” value (human granulocytes [2]; ABA 1 µM + compound 0.5 nM) of the same molecule?
Answer: 680±13.6 delta OD

Question: What about the “Increase in fluorescence (delta OD)±SD” value (human granulocytes [2]; ABA 1 µM + compound 1 nM) of the same molecule?
Answer: 371±1.9 delta OD

Question: And the “Increase in fluorescence (delta OD)±SD” value (human granulocytes [2]; ABA 1 µM + compound 1 µM)?
Answer: 46±0.2 delta OD

Question: What about the inhibition at 10 pM (human granulocytes [2]; Homo sapiens, ROS production, ABA 1 µM, compound 0.01 nM) of the same molecule?
Answer: 0%

Question: And the inhibition at 0.0005 µM (human granulocytes [2]; Homo sapiens, ROS production, ABA 1 µM, compound 0.5 nM)?
Answer: 45%

Question: And the inhibition at 0.001 µM (human granulocytes [2]; Homo sapiens, ROS production, ABA 1 µM, compound 1 nM)?
Answer: 70%

Question: And the inhibition at 1 µM (human granulocytes [2]; Homo sapiens, ROS production, ABA 1 µM, compound 1 µM)?
Answer: 96%

Question: And the IC50 (human granulocytes [2]; Homo sapiens, inhibiting the production of ROS, ABA 1 µM)?
Answer: ~0.5 nM

Question: And the “Increase in fluorescence ±SD (@ 15 min)” value (human granulocytes [3]; ABA 20 µM + compound 0.5 nM, 15 min)?
Answer: 210±2

Question: And the “Increase in fluorescence ±SD (@ 30 min)” value (human granulocytes [3]; ABA 20 µM + compound 0.5 nM, 30 min)?
Answer: 1423±3

Question: What about the “Increase in fluorescence ±SD (@ 15 min)” value (human granulocytes [3]; ABA 20 µM + compound 10 nM, 15 min) of the same molecule?
Answer: 148±2

Question: And the “Increase in fluorescence ±SD (@ 30 min)” value (human granulocytes [3]; ABA 20 µM + compound 10 nM, 30 min)?
Answer: 515±10

Question: What about the “Increase in fluorescence ±SD (@ 15 min)” value (human granulocytes [3]; ABA 20 µM + compound 1 µM, 15 min) of the same molecule?
Answer: 17

Question: What about the “Increase in fluorescence ±SD (@ 30 min)” value (human granulocytes [3]; ABA 20 µM + compound 1 µM, 30 min) of the same molecule?
Answer: 0

Question: What about the inhibition at 0.0005 µM (human granulocytes [3]; Homo sapiens, 0.25 h, ABA 20 µM + compound 0.5 nM, 15 min, read-out: Inhibition % (@ 15 min)) of the same molecule?
Answer: 77%

Question: And the inhibition at 0.01 µM (human granulocytes [3]; Homo sapiens, 0.25 h, ABA 20 µM + compound 10 nM, 15 min, read-out: Inhibition % (@ 15 min))?
Answer: 84%

Question: What about the inhibition at 1 µM (human granulocytes [3]; Homo sapiens, 0.25 h, ABA 20 µM + compound 1 µM, 15 min, read-out: Inhibition % (@ 15 min)) of the same molecule?
Answer: 98%

Question: And the inhibition at 0.0005 µM (human granulocytes [3]; Homo sapiens, 0.5 h, ABA 20 µM + compound 0.5 nM, 30 min, read-out: Inhibition % (@ 30 min))?
Answer: 43%

Question: What about the inhibition at 0.01 µM (human granulocytes [3]; Homo sapiens, 0.5 h, ABA 20 µM + compound 10 nM, 30 min, read-out: Inhibition % (@ 30 min)) of the same molecule?
Answer: 80%

Question: What about the inhibition at 1 µM (human granulocytes [3]; Homo sapiens, 0.5 h, ABA 20 µM + compound 1 µM, 30 min, read-out: Inhibition % (@ 30 min)) of the same molecule?
Answer: 100%

Question: And the IC50 (human granulocytes [3]; Homo sapiens, phagocytosis induced by 20 µM ABA)?
Answer: ~0.5 nM

Question: CC1=CC(=O)CC(C)(C)C1(O)/C=C/C(C)=C\C(=O)O (racemic) [ABA, (2Z,4E)-5-(1-hydroxy-2,6,6-trimethyl-4-oxo-2-cyclohexen-1-yl)-3-methyl-2,4-pentadienoic acid, reference compound] was tested. Which “SI (insulin secretion index relative to LG)” value [1, 4] did it give?
Answer: 0,91

Question: What about the “SI (insulin secretion index relative to LG)” value [1, 5] of the same molecule?
Answer: 1,8

Question: And the “CI±SD (chemotactic index)” value (granulocytes; ABA 1 µM alone)?
Answer: 1.63±0.10

Question: And the “Relative amount of PGE2 as referred to control ± SD” value (human monocytes; ABA 100 nM alone)?
Answer: 2,2±0,2

Question: And the “Increase in fluorescence (delta OD)±SD” value (human granulocytes [2]; ABA 1 µM alone)?
Answer: 1238±8.7 delta OD

Question: And the “Increase in fluorescence ±SD (@ 15 min)” value (human granulocytes [3]; ABA 20 µM alone, 15 min)?
Answer: 909±47

Question: And the “Increase in fluorescence ±SD (@ 30 min)” value (human granulocytes [3]; ABA 20 µM alone, 30 min)?
Answer: 2476±50
